The test system of series [1] is plasmid pRSII325. The series is described as follows: Nuclease activity assay, gel electrophoresis. Type of series: biochemical. As to conditions: for Nuclease activity in the presence of H2O2: 3 µM compound + 1 mM H2O2, 1 h at 37 °C; for Nuclease activity in the presence of ascorbate: 3 µM compound + 1 mM ascorbate; for Nuclease activity in the presence of ascorbate / Nuclease activity, compound alone: 1 h at 37 °C; for Nuclease activity, compound alone: 3 µM compound, no activating agent. The procedure:
The nuclease activity of the compounds was determined using plasmid pRS325II DNA, which was a gift from Steven Haase (Addgene plasmid #35467, 6835 base pairs). The plasmid was amplified in Escherichia coli by transforming One Shot® TOP10 chemically competent E. coli from Invitrogen, Thermo Fisher Scientific (Vilnius, Lithuania). Plasmid was isolated from positive colonies using a PureLink™ HiPure Plasmid Miniprep Kit from Invitrogen, Thermo Fisher Scientific (Vilnius, Lithuania). Plasmid (200 ng/sample) was exposed to 3 µM compounds in the presence of 1 mM hydrogen peroxide (to exploit the Cu(II/III) redox couple) or 1 mM ascorbic acid (to exploit the Cu(I/II) redox couple). The DNA cleavage experiments for the complexes were done in a 9/1 (v/v) ratio of 50 mM Tris-HCl buffer, pH 8, and DMSO. The samples were incubated for 1 h at 37 °C before a bromophenol blue/xylene cyanol-based loading dye (Roth, Germany) was added to the samples. Partial cleavage of the plasmid to linear form was done with the restriction enzyme EcoRI (Promega, USA) by incubation for 5 min at 37 °C. The samples were loaded on a 1% (w/v) agarose gel containing 1 μg/mL EtBr in 1 × TAE (Tris–acetic acid–EDTA) buffer. Electrophoresis was performed at 100 V for 45 min in 1 × TAE buffer. The images of the fluorescent ethidium bromide-stained gels were captured using a gel documentation system (Doc-Print II, Vilber Lourmat, France). The cleavage experiments were done six times, with similar results. One representative gel is shown.

Series [2] concerns normal BJ cell (human fibroblast). The series is described as follows: MTT cell viability assay. The series is classed as cell-based. The procedure:
(§1) The cytotoxicity of ligand and copper(II) complexes was tested on normal BJ cell as well as on B16 (melanoma) tumor cells, which were grown for 48 h in culture medium containing the tested complexes in 0–25 μg/mL concentration range.
(§2) Human fibroblast cells (BJ-ATCC CRL-2522, Manassas, VA, USA) were grown in minimal essential medium (MEM) supplemented with 2 mM L-Glutamine, 10% fetal calf serum (FCS), 100 units/mL of penicillin and 100 µg/mL of streptomycin at 37 °C in a humidified incubator under an atmosphere containing 5% CO2. Mouse melanoma cells (B16-ATCC CRL-6475, Manassas, VA, USA) were grown in DMEM (Dulbecco’s Modified Eagle Medium) supplemented with similar reagents as MEM. All cell cultivation media and reagents were purchased from Biochrom AG (Berlin, Germany) and Sigma-Aldrich (Darmstadt, Germany).
(§3) Cell viability was evaluated using 3-(4,5-dimethylthiazol-2-yl)-2,5-diphenyltetrazolium bromide (MTT) assay, as described previously. First, the cells were seeded in 96-well plates (20,000 cells/well) and cultured for 24 h in medium. After overnight incubation, the medium was changed and the investigated sample in concentration varying from […] was added for 24 h. The negative control was represented by cells cultivated in medium without the investigated compounds. Following incubation, the medium was changed and the MTT solution was added to each well to a final concentration of 1 mg/mL and incubated for additional 4 h, at 37 °C. Finally, the medium was collected and DMSO was used to dissolve the insoluble formazan product. The absorbance of the samples was recorded at 570 nm using a plate reader Mithras 940 (Berthold). The data were corrected for the background and the percentage of viable cells was obtained using the equation:Cell viability = [(A570 of treated cells)/(A570 of untreated cells)] × 100%
(§4) The half-maximal inhibitory concentration (IC50) was determined by fitting the data with a logistical sigmoidal equation using the software Origin 8.1 from Microcal Inc. (Los Angeles, CA, USA).
For orientation: Formazan colour is commonly taken as a measure of viable cells.

Series [3] concerns BJ cells. Nature of the series: Phalloidin staining and cell imaging (cytoskeleton, nucleus). Type of series: cell-based, Human. The note with it: 24 h, 6 μg/mL. The procedure: (§5) Cytoskeleton actin filaments of BJ and B16 cells were stained with phalloidin-FITC (Sigma-Aldrich, USA) according to the manufacturer’s protocol. Briefly, cells were washed with PBS (5 min, 3 times), fixed for 5 min with 3% paraformaldehyde, washed three times with PBS, permeabilized with 0.1% Triton X-100 in PBS for 15 min, washed three times with PBS, stained with 20 μg mL^−1 phalloidin-FITC at room temperature for 1 h and washed again three times with PBS. Cell nucleus was stained with 8 μM of Hoechst 33342 solution for 10 min, washed three times with PBS and finally, mounted and sealed on glass slides with FluorSave™ Reagent (Merck Millipore, Germany). The fluorescence images were acquired using an Andor DSD2 Confocal Unit (Andor, Ireland), mounted on an epifluorescence microscope, Olympus BX-51 (Olympus, Germany), equipped with a 40x and 100x objective and an appropriate DAPI/Hoechst filter cube (excitation filter 390/40 m, dichroic mirror 405 nm and emission filter 452/45 nm) and GFP/FITC filter cube (excitation filter 466/40 nm, dichroic mirror 488 nm and emission filter 525/54 nm).

For series [4], the system named is MRSA. Nature of the series: MBEC assay, micro-titer method (biofilm). The series is classed as cell-based, Staphylococcus aureus. The procedure:
(§6) The antibacterial assays were performed on Gram-negative (Escherichia coli ATCC 25922, E. coli 5, Pseudomonas aeruginosa ATCC 27853, P. aeruginosa ATCC 9027) and Gram-positive (Staphylococcus aureus ATCC 25923, S. aureus ATCC 6538, MRSA (Meticillin-resistant S. aureus) 388, ATCC, American Type Culture Collection) bacterial strains. Microbial suspensions (1.5 × 10^8 CFU/mL; colony forming units (CFU)) corresponding to 0.5 McFarland density obtained from 15 to 18-h bacterial cultures developed on solid media were used. The antimicrobial activity was tested on Mueller–Hinton agar medium.
(§7) The assessment of the complexes’ influence on the microbial ability to colonize an inert substratum with the establishment of the minimal biofilm eradication concentration (MBEC) was performed by the micro-titer method, following previously described protocols. The absorbance at 490 nm was measured with an Apollo LB 911ELISA (Berthold Technologies GmbH & Co. KG, Waltham, MA, USA) reader. All experiments were performed in triplicates.

The subject of series [5] is S. aureus 6538. Nature of the series: MBEC assay, micro-titer method (biofilm). The series is classed as cell-based, Staphylococcus aureus. The procedure:
as §6, §7

Series [6] deals with B16 (melanoma) tumor cells. The series is described as follows: MTT cell viability assay. Type of series: cell-based, Mouse. The procedure:
as §1, §2, §3, §4

For series [7], the system named is B16 cells. The series is described as follows: Phalloidin staining and cell imaging (cytoskeleton, nucleus). The series is classed as cell-based, Mouse. The note with it: 24 h, 6 μg/mL. The procedure: as §5
[8] abbreviates: B16 cells, 48 h, MTT, read-out: IC50 B16 Cells 48 h.

Read-outs that look alike come from different tables or passages of the source.

The record followed here is PMC7504215, “Copper(II) Complexes with Mixed Heterocycle Ligands as Promising Antibacterial and Antitumor Species” (Molecules, 2020).

A word on the IC50: it is the concentration at which inhibition is half-maximal.

For `Cc1cc(-c2ccccc2)nc2ncnn12.[Cu+2].[O-][Cl+3]([O-])([O-])[O-].[O-][Cl+3]([O-])([O-])[O-].c1ccc(-c2ccccn2)nc1.c1ccc(-c2ccccn2)nc1` [(1), [Cu(bpy)2(pmtp)](ClO4)2], in series [1], the “Nuclease activity in the presence of H2O2” value was “led to DNA degradation”; the “Nuclease activity in the presence of ascorbate” value is listed as “led to DNA degradation”; the “Nuclease activity, compound alone” value was “caused plasmid relaxation to the NC form”. For the same compound, the “Viability of BJ cells” value in series [2] (48 h, highest tested concentration (0–25 μg/mL range)) came to 70%. Besides, the “Cell morphology (cytoskeleton and nucleus)” value (“Cell morphology” below) in series [3] is on record as “does not alter its morphology”. For the same compound, in series [4], the MBEC value stood at 0.40 mM. The compound also registered an MBEC value in series [5] of 0.10 mM. For the same compound, the “Effect on viability of B16 cells” value in series [6] (24 h of treatment, 0–25 μg/mL) was “did not affect the viability of B16 cells”. In series [6] (B16 cells, 48 h, MTT), the “IC50 B16 Cells 48 h” value worked out at 15.46 µg/mL. For the same compound, in series [6] (setting [8]), the IC50 was determined as 20 µM. The “Cell morphology” value in series [7] is recorded as “does not alter the morphology of the cells”.

Take `Cc1cc(-c2ccccc2)nc2ncnn12.[Cu+2].[O-][Cl+3]([O-])([O-])[O-].[O-][Cl+3]([O-])([O-])[O-].c1cnc2c(c1)ccc1cccnc12.c1cnc2c(c1)ccc1cccnc12` [(2), [Cu(phen)2(pmtp)](ClO4)2]: the “Nuclease activity in the presence of H2O2” value in series [1] is on record as “led to DNA degradation”. Further, the “Nuclease activity in the presence of ascorbate” value in series [1] is on record as “led to DNA degradation”. In addition, the “Nuclease activity, compound alone” value in series [1] is “caused plasmid relaxation to the NC form”. Besides, in series [2] (BJ cells, 24 h, MTT), the “IC50 BJ Cells 24 h” value turned out to be 5.98 µg/mL. For the same compound, the IC50 stood at 7 µM in series [2] (BJ cells, 24 h, MTT, read-out: IC50 BJ Cells 24 h); 4 µM in series [2] (BJ cells, 48 h, MTT, read-out: IC50 BJ Cells 48 h); 7.5 µM in series [6] (B16 cells, 24 h, MTT, read-out: IC50 B16 Cells 24 h); 4 µM in series [6] (setting [8]). In series [2] (BJ cells, 48 h, MTT), the “IC50 BJ Cells 48 h” value is 3.30 µg/mL. Also, the “Cell morphology” value in series [3] and in series [7] was “affects the cell morphology” throughout. The MBEC value is given as 0.05 mM in series [4] and 0.02 mM in series [5]. Also, in series [6] (B16 cells, 24 h, MTT), the “IC50 B16 Cells 24 h” value turned out to be 6.25 µg/mL. In series [6] (B16 cells, 48 h, MTT), the “IC50 B16 Cells 48 h” value stood at 3.72 µg/mL.
